Read-outs that look alike come from different tables or passages of the source.
Tests used:
Florida Pusley = test: Field preemergence activity in peanuts, surface applied; assay type: in vivo; conditions: for inhibition at 2240 g/ha: 2.24 Kg/Ha; for inhibition at 4480 g/ha: 4.48 Kg/Ha
Text: (§1) It will be understood by those skilled in the art that not all of the named weeds are selectively controlled in all of the named crops under all conditions of climate, soil, moisture and/or herbicide application modes. Selectivity data for control of the foregoing weeds in the crops soybeans, corn, cotton and peanuts from a plurality of field tests in various locations under various conditions of soil, moisture, etc., is shown collectively in Tables VIII-XI, respectively.
(§2) In Table XI is presented preemergence activity data for the compound of Example 1 against three resistant annual weeds, i.e., Texas panicum, bristly starbur and Florida pusley in peanuts for periods up to 12 WAT. The data in Table XI represent the average of three replicate runs in sandy loam soil having 1.3% organic matter, 79.2% sand and 10% clay; herbicide surface applied.

peanuts = test: as above; assay type: in vivo; conditions: pre-emergence, read-out: Percent Inhibition; for inhibition at 2240 g/ha: 2.24 Kg/Ha; for inhibition at 3360 g/ha: 3.36 Kg/Ha; for inhibition at 4480 g/ha: 4.48 Kg/Ha
Text: as §1, §2

corn = test: Field tests, selectivity; assay type: in vivo
Text: (§3) In the discussion and tables of data below, reference is made to herbicide application rates symbolized as "GR15 " and "GR85 "; these rates are given in kilograms per hectare (kg/ha) which are convertible into pounds per acre (lbs/A) by dividing the kg/ha rate by 1.12.
(§4) A further guide to the effectiveness of a chemical as a selective herbicide is the "selectivity factor" ("SF") for a herbicide in given crops and weeds. The selectivity factor is a measure of the relative degree of crop safety and weed injury and is expressed in terms of the GR15 /GR85 ratio, i.e., the GR15 rate for the crop divided by the GR85 rate for the weed, both rates in kg/ha (lb/A). In the tables below, selectivity factors are shown in parenthesis following the GR85 rate for each weed; the symbol "NS" indicates "non-selective". Marginal or undetermined selectivity is indicated by a dash (--).
as §1

Lambsquarters = test: Field tests, selectivity; assay type: in vivo; conditions: in soybeans, 6 WAT
Text: as §3, §4, §1

purple nutsedge = test: Field tests, selectivity; assay type: in vivo; conditions: in cotton
Text: as §3, §4, §1

prickly sida = test: Field tests, selectivity; assay type: in vivo; conditions: in cotton
Text: as §3, §4, §1

soybeans = test: Field tests, selectivity; assay type: in vivo
Text: as §3, §4, §1

Morningglory = test: Field tests, selectivity; assay type: in vivo; conditions: in corn
Text: as §3, §4, §1

Cocklebur = test: Field tests, selectivity; assay type: in vivo; conditions: in corn
Text: as §3, §4, §1

Yellow foxtail = test: Field tests, selectivity; assay type: in vivo; conditions: in soybeans, 6 WAT
Text: as §3, §4, §1

[1] = test system: crabgrass (smooth and hairy); test: Field tests, selectivity; assay type: in vivo; conditions: in cotton, 7 WAT
Text: as §3, §4, §1

Giant foxtail = test: Field tests, selectivity; assay type: in vivo
Text: as §3, §4, §1

goosegrass = test: Field tests, selectivity; assay type: in vivo; conditions: in cotton, P.P.I., 7 WAT
Text: as §3, §4, §1

purslane = test: Field tests, selectivity; assay type: in vivo; conditions: in cotton, S.A., 9 WAT
Text: as §3, §4, §1

cotton = test: Field tests, selectivity; assay type: in vivo
Text: as §3, §4, §1

Pennsylvania smartweed = test: Field tests, selectivity; assay type: in vivo; conditions: in soybeans, P.P.I., 8 WAT
Text: as §3, §4, §1

[2] = Toxicology studies, eye irritation; conditions: in vivo
Text: Toxicology studies on the compound of Example 1 have indicated the compound to be quite safe. […] No special handling procedures beyond normal precautions are deemed necessary.

[3] = pre-emergence, 4 WAT, read-out: Percent Inhibition
[4] = pre-emergence, 8 WAT, read-out: Percent Inhibition

## CCOCN(C(=O)CCl)c1c(C)cccc1C(F)(F)F [Example 1, N-(ethoxymethyl)-2'-trifluoromethyl-6'-methyl-2-chloroacetanilide]
Florida Pusley; 4.48 kg/ha, 12 WAT
  control: 95%
Florida Pusley; [3]
  inhibition at 2240 g/ha: 0%
  inhibition at 4480 g/ha: 0%
Florida Pusley; [4]
  inhibition at 2240 g/ha: 90%
  inhibition at 4480 g/ha: 95%
Florida Pusley; pre-emergence, 3.36 Kg/Ha, 4 WAT, read-out: Percent Inhibition
  inhibition at 3360 g/ha: 0%
Florida Pusley; pre-emergence, 12 WAT, read-out: Percent Inhibition
  inhibition at 4480 g/ha: 95%
peanuts; 4 WAT
  inhibition at 2240 g/ha: 5%
  inhibition at 3360 g/ha: 10%
  inhibition at 4480 g/ha: 17%
peanuts; 8 WAT
  inhibition at 2240 g/ha: 0%
  inhibition at 3360 g/ha: 0%
  inhibition at 4480 g/ha: 7%
peanuts; 12 WAT
  inhibition at 2240 g/ha: 0%
  inhibition at 3360 g/ha: 0%
  inhibition at 4480 g/ha: 0%
corn; Corn/Cocklebur, P.P.I., 3 WAT
  GR15: 4.8 kg/ha
corn; Corn/Cocklebur, P.P.I., 6 WAT
  GR15: 4.8 kg/ha
corn; Corn/Cocklebur, S.A., 3 WAT
  GR15: > 4.5 kg/ha
corn; Corn/Cocklebur, S.A., 6 WAT
  GR15: > 4.5 kg/ha
corn; Corn/Giant foxtail, P.P.I., 6 WAT
  GR15: 4.8 kg/ha
corn; Corn/Giant foxtail, P.P.I., 6.5 WAT
  GR15: > 6.7 kg/ha
corn; Corn/Giant foxtail, S.A., 6 WAT
  GR15: 4.5 kg/ha
corn; Corn/Giant foxtail, S.A., 6.5 WAT
  GR15: > 7.8 kg/ha
corn; Corn/Morningglory, P.P.I., 3 WAT
  GR15: 4.8 kg/ha
corn; Corn/Morningglory, P.P.I., 6 WAT
  GR15: 4.8 kg/ha
corn; Corn/Morningglory, S.A., 3 WAT
  GR15: > 4.5 kg/ha
corn; Corn/Morningglory, S.A., 6 WAT
  GR15: > 4.5 kg/ha
Lambsquarters; P.P.I.
  GR85: 2.8 kg/ha
Lambsquarters; S.A.
  GR85: 2.5 kg/ha
  S.F. (GR15/GR85): 1
Purple nutsedge; P.P.I., 6 WAT
  GR85: 4.2 kg/ha
Purple nutsedge; S.A., 6 WAT
  GR85: 1.7 kg/ha
  S.F. (GR15/GR85): 2
Purple nutsedge; S.A., 9 WAT
  GR85: 2.2 kg/ha
  S.F. (GR15/GR85): 1.5
Prickly sida; P.P.I., 6 WAT
  GR85: 4.8 kg/ha
Prickly sida; S.A., 6 WAT
  GR85: 3.1 kg/ha
  S.F. (GR15/GR85): 1
Prickly sida; S.A., 9 WAT
  GR85: 4.8 kg/ha
soybeans; Soybeans/Giant foxtail, P.P.I., 3 WAT
  GR15: > 4.5 kg/ha
soybeans; Soybeans/Giant foxtail, P.P.I., 5 WAT
  GR15: > 4.5 kg/ha
soybeans; Soybeans/Giant foxtail, S.A., 3 WAT
  GR15: > 4.5 kg/ha
soybeans; Soybeans/Lambsquarters, P.P.I., 6 WAT
  GR15: 1.4 kg/ha
soybeans; Soybeans/Lambsquarters, S.A., 6 WAT
  GR15: 2.5 kg/ha
soybeans; Soybeans/Pennsylvania Smartweed, P.P.I., 8 WAT
  GR15: 4.5 kg/ha
soybeans; Soybeans/Yellow foxtail, P.P.I., 6 WAT
  GR15: 1.4 kg/ha
soybeans; Soybeans/Yellow foxtail, S.A., 6 WAT
  GR15: 2.5 kg/ha
Morningglory; P.P.I., 3 WAT
  GR85: > 4.5 kg/ha
Morningglory; P.P.I., 6 WAT
  GR85: > 4.5 kg/ha
Morningglory; S.A., 3 WAT
  GR85: > 4.5 kg/ha
Morningglory; S.A., 6 WAT
  GR85: > 4.5 kg/ha
Morningglory; Table IX
  suppression: suppression of these weeds was exhibited
Cocklebur; P.P.I., 3 WAT
  GR85: > 4.5 kg/ha
Cocklebur; P.P.I., 6 WAT
  GR85: > 4.5 kg/ha
Cocklebur; S.A., 3 WAT
  GR85: > 4.5 kg/ha
Cocklebur; S.A., 6 WAT
  GR85: > 4.5 kg/ha
Cocklebur; Table IX
  suppression: suppression of these weeds was exhibited
Yellow foxtail; P.P.I.
  GR85: < 1.12 kg/ha
  S.F. (GR15/GR85): > 1
Yellow foxtail; S.A.
  GR85: 1.1 kg/ha
  S.F. (GR15/GR85): 2
[1]; P.P.I.
  GR85: 1.1 kg/ha
[1]; S.A.
  GR85: < 1.1 kg/ha
  S.F. (GR15/GR85): > 1
Giant foxtail; in corn, P.P.I., 6 WAT
  GR85: 2.0 kg/ha
  S.F. (GR15/GR85): 2.5
Giant foxtail; in corn, P.P.I., 6.5 WAT
  GR85: 4.5 kg/ha
  S.F. (GR15/GR85): 1.5
Giant foxtail; in corn, S.A., 6 WAT
  GR85: < 1.1 kg/ha
  S.F. (GR15/GR85): 4
Giant foxtail; in corn, S.A., 6.5 WAT
  GR85: 8.4 kg/ha
Giant foxtail; in soybeans, P.P.I., 3 WAT
  GR85: < 1.1 kg/ha
  S.F. (GR15/GR85): > 4
Giant foxtail; in soybeans, P.P.I., 5 WAT
  GR85: < 1.1 kg/ha
  S.F. (GR15/GR85): > 4
Giant foxtail; in soybeans, S.A., 3 WAT
  GR85: < 1.1 kg/ha
  S.F. (GR15/GR85): > 4
goosegrass
  GR85: < 1.1 kg/ha
  control: marginal or indeterminate
purslane
  GR85: 2.0 kg/ha
  S.F. (GR15/GR85): 1.5
cotton; Cotton/Crabgrass, P.P.I., 7 WAT
  GR15: 0.84 kg/ha
cotton; Cotton/Crabgrass, S.A., 7 WAT
  GR15: 1.4 kg/ha
cotton; Cotton/Goosegrass, P.P.I., 7 WAT
  GR15: 0.84 kg/ha
cotton; Cotton/Prickly sida, P.P.I., 6 WAT
  GR15: 3.4 kg/ha
cotton; Cotton/Prickly sida, S.A., 6 WAT
  GR15: 3.6 kg/ha
cotton; Cotton/Prickly sida, S.A., 9 WAT
  GR15: 3.4 kg/ha
cotton; Cotton/Purple nutsedge, P.P.I., 6 WAT
  GR15: 3.4 kg/ha
cotton; Cotton/Purple nutsedge, S.A., 6 WAT
  GR15: 3.6 kg/ha
cotton; Cotton/Purple nutsedge, S.A., 9 WAT
  GR15: 3.4 kg/ha
cotton; Cotton/Purslane, S.A., 9 WAT
  GR15: 3.4 kg/ha
Pennsylvania smartweed
  GR85: 2.5 kg/ha
  S.F. (GR15/GR85): 2
[2]
  eye irritation: slight eye irritation

Source: patent US4731109A, “Herbicidal 2-haloacetanilides” (Monsanto Company, priority 1982, dated 1988)
